Measurements reported in the supplement of paper PMC4862054.

Legend:
Settings in all cases: incubation time: 72 h
MDA-MB-436 [1] = test: normalised response (% of control), CellTiter-Glo; higher = more viable cells (100 = DMSO, 0 = benzethonium chloride kill control)
Protocol: (§1)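 DSRT, 72 h incubation, CellTox Green / CellTiter-Glo readout. Signal is normalised to DMSO and benzethonium chloride controls. Value is the normalised response at dose 3.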

CAL-120 [2] = test: as above
Protocol: as §1

MFM-223 [3] = test: as above
Protocol: as §1

MDA-MB-453 [4] = test: as above
Protocol: as §1

MCF-10A [5] = test: as above
Protocol: as §1

MDA-MB-468 [6] = test: as above
Protocol: as §1

SK-BR-3 = test: as above
Protocol: as §1

BT-474 [7] = test: as above
Protocol: as §1

BT-549 [8] = test: as above
Protocol: as §1

DU-4475 [9] = test: as above
Protocol: as §1

HCC1937 [10] = test: as above
Protocol: as §1

Hs578T [11] = test: as above
Protocol: as §1

HCC1599 [12] = test: as above
Protocol: as §1

CAL-148 [13] = test: as above
Protocol: as §1

CAL-85-1 [14] = test: as above
Protocol: as §1

MDA-MB-231 [15] = test: as above
Protocol: as §1

HCC1143 [16] = test: as above
Protocol: as §1

HDQ-P1 [17] = test: as above
Protocol: as §1

CAL-51 [18] = test: as above
Protocol: as §1

MDA-MB-436 [19] = test: normalised response (% of control), CellTox Green; higher = less cell death (100 = DMSO, 0 = benzethonium chloride kill control)
Procedure, shortened: (§2)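 The table gives the normalised signal for a single concentration in each entry. Breast cancer cell lines were seeded (20 µl suspension) into 384-well plates holding compound at 5 concentrations in 10-fold steps over a compound-specific 10,000-fold range and incubated 72 h, then read for CellTox Green fluorescence (485/520 nm) and CellTiter-Glo luminescence. Normalisation on each plate used 0.1 % DMSO (100) and a positive kill control (0).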

CAL-120 [20] = test: as above
Procedure, shortened: as §2

MFM-223 [21] = test: as above
Procedure, shortened: as §2

MDA-MB-453 [22] = test: as above
Procedure, shortened: as §2

MCF-10A [23] = test: as above
Procedure, shortened: as §2

MDA-MB-468 [24] = test: as above
Procedure, shortened: as §2

BT-474 [25] = test: as above
Procedure, shortened: as §2

BT-549 [26] = test: as above
Procedure, shortened: as §2

DU-4475 [27] = test: as above
Procedure, shortened: as §2

HCC1937 [28] = test: as above
Procedure, shortened: as §2

Hs578T [29] = test: as above
Procedure, shortened: as §2

HCC1599 [30] = test: as above
Procedure, shortened: as §2

CAL-148 [31] = test: as above
Procedure, shortened: as §2

CAL-85-1 [32] = test: as above
Procedure, shortened: as §2

MDA-MB-231 [33] = test: as above
Procedure, shortened: as §2

HCC1143 [34] = test: as above
Procedure, shortened: as §2

HDQ-P1 [35] = test: as above
Procedure, shortened: as §2

CAL-51 [36] = test: as above
Procedure, shortened: as §2

SMILES	normalised response (MDA-MB-436 [1]) [%]	normalised response (CAL-120 [2]) [%]	normalised response (MFM-223 [3]) [%]	normalised response (MDA-MB-453 [4]) [%]	normalised response (MCF-10A [5]) [%]	normalised response (MDA-MB-468 [6]) [%]	normalised response (SK-BR-3) [%]	normalised response (BT-474 [7]) [%]	normalised response (BT-549 [8]) [%]	normalised response (DU-4475 [9]) [%]	normalised response (HCC1937 [10]) [%]	normalised response (Hs578T [11]) [%]	normalised response (HCC1599 [12]) [%]	normalised response (CAL-148 [13]) [%]	normalised response (CAL-85-1 [14]) [%]	normalised response (MDA-MB-231 [15]) [%]	normalised response (HCC1143 [16]) [%]	normalised response (HDQ-P1 [17]) [%]	normalised response (CAL-51 [18]) [%]	normalised response (MDA-MB-436 [19]) [%]	normalised response (CAL-120 [20]) [%]	normalised response (MFM-223 [21]) [%]	normalised response (MDA-MB-453 [22]) [%]	normalised response (MCF-10A [23]) [%]	normalised response (MDA-MB-468 [24]) [%]	normalised response (BT-474 [25]) [%]	normalised response (BT-549 [26]) [%]	normalised response (DU-4475 [27]) [%]	normalised response (HCC1937 [28]) [%]	normalised response (Hs578T [29]) [%]	normalised response (HCC1599 [30]) [%]	normalised response (CAL-148 [31]) [%]	normalised response (CAL-85-1 [32]) [%]	normalised response (MDA-MB-231 [33]) [%]	normalised response (HCC1143 [34]) [%]	normalised response (HDQ-P1 [35]) [%]	normalised response (CAL-51 [36]) [%]
O=c1[nH]cc(F)c(=O)[nH]1 [Fluorouracil] (100 nM)	105	107	104	116	113	98	104	103	109	102	95.6	105	116	111	98.3	111	109	102	105	51.5	100	106	106	114	99.4	93	96.8	106	103	101	103	102	114	111	92.6	105	113
CC(C)C[C@H](NC(=O)[C@H](Cc1ccccc1)NC(=O)c1cnccn1)B(O)O [Bortezomib] (10 nM)	35.6	74.6	17.6	69.2	113	2.63	30	44.5	10.1	88.6	64.8	66	89.7	98.8	12.3	69.3	74.7	61.7	96.8	72.3	88	82	109	74.6	-99.2	92	97.2	111	61.9	71	101	87.2	16.3	70.5	105	75.7	110
C[C@@]1(C(=O)Nc2ccc(F)nc2)CCCN1c1nc(Nc2cc(C3CC3)n[nH]2)c2cccn2n1 (100 nM)	86.9	82.9	84.5	80	28.7	87.8	83.2	79.5	86.5	82.2	90.7	92.7	82.8	102	74.9	79.8	91.9	64.2	106	99.2	100	104	95.8	76.1	71.9	95.3	90.2	94.4	103	89.5	98	96.3	85.8	78.5	87.5	89	104
COc1c(C)cnc(Cn2cnc3c(Cl)nc(N)nc32)c1C [BIIB021] (100 nM)	82.6	85.9	82.7	81.4	100	81.6	45	106	65.9	101	82.1	101	85	88.7	90.8	109	97.9	81.7	82.7	82	101	97	98.5	91.5	108	95.7	114	103	88.4	107	109	62.7	78.5	107	107	109	122
CCOc1cc2ncc(C#N)c(Nc3ccc(OCc4ccccn4)c(Cl)c3)c2cc1NC(=O)/C=C/CN(C)C [Neratinib] (10 nM)	99.7	104	101	78.3	98.1	91.7	37.4	101	97.9	105	95.1	99.2	112	101	102	100	97.3	83.5	91.5	54.2	104	94.8	108	116	126	93.4	111	108	102	88.5	104	104	112	120	103	98.1	110
C[C@@H]1CCN(C(=O)CC#N)C[C@@H]1N(C)c1ncnc2[nH]ccc12 [Tofacitinib] (50 nM)	98.7	99.8	110	102	101	110	104	102	104	106	96.5	109	105	114	109	104	106	104	88.1	97.8	99.7	107	103	105	127	103	94.2	102	123	93.4	116	90.6	99.7	104	104	114	113
CN1CCN(c2ccc3nc(-c4c(N)c5c(F)cccc5[nH]c4=O)[nH]c3c2)CC1 [Dovitinib] (100 nM)	96.5	93.9	100	100	99.1	97.3	94.7	104	103	97.1	94.8	101	94.2	99.7	94.7	92.4	103	97.3	107	72.4	96	105	101	102	87.8	96.5	95.3	100	89.1	93.3	108	85.1	90.3	89.5	97.1	115	107
CS(=O)(=O)OCCCCOS(C)(=O)=O [Busulfan] (1000 nM)	94.2	102	106	111	108	97.2	110	98.9	109	108	96.2	108	98.9	107	104	105	105	103	90.4	90.6	97.8	102	103	59.8	121	100	96.5	101	107	105	103	96.1	101	104	97.8	83.3	109
COc1cc(Nc2ncc(F)c(Nc3ccc4c(n3)NC(=O)C(C)(C)O4)n2)cc(OC)c1OC [Tamatinib] (100 nM)	99	96.2	110	108	104	93.8	111	101	98.9	105	103	102	123	112	96.7	108	105	97.9	104	104	103	91.3	109	107	83.2	101	94.5	104	93.6	112	99.2	73.6	113	105	90.7	107	115
